What all share (assay type): physicochemical
The nature of series [1]: organic solvent solubility. The settings on record: for solubility: organic solvent or mixture. As to the method: (§1) Compound I can be produced, for example, by the method described in Example 3 (Compound 7) of WO2014/092061.
A solvent suitable for solvent treatment may be any compound in which drugs, polymers, and bases are mutually soluble. Preferably, the solvent is also volatile and has a boiling point of 150° C. or lower. Furthermore, the solvent should have relatively low toxicity and should be removed from the solid dispersion to a level that is acceptable according to the guidelines of the International Council for Harmonization of Technical Requirements for Pharmaceuticals for Human Use (ICH). Removal of the solvent to this level may require a subsequent processing step such as tray-drying. Preferred solvents include alcohols such as methanol, ethanol, n-propanol, iso-propanol, and butanol; ketones such as acetone, methyl ethyl ketone, and methyl iso-butyl ketone; esters such as ethyl acetate and propyl acetate; and various other solvents, such as acetonitrile, methylene chloride, toluene, 1,1,1-trichloroethane, and tetrahydrofuran. Low-volatility solvents such as dimethylacetamide or dimethylsulfoxide can also be used in small amounts in mixtures with volatile solvents. A mixture of solvents such as 50% methanol and 50% acetone can also be used in the same manner as a mixture with water. Preferred solvents are ethanol, methanol, acetone, tetrahydrofuran, ethyl acetate, mixtures of these with water, and mixtures thereof. […] In particular, tetrahydrofuran and its mixed liquids can be referred to as preferred solvents.

A short description of the next series: pKa values.
Text: as §1
In the present invention, the “base” preferably has a pKa value greater than that of Compound I. Since the lower pKa value of Compound I is about 8, the bases that can be used in the present invention desirably have a pKa value that is preferably more than about 9, even more preferably more than about 10, and most preferably more than about 11. Here, the term pKa is used in its conventional form. That is, pKa is the negative logarithm of the ionization constant of the acid. Unless otherwise specified, pKa is assumed to be measured in distilled water at 25° C.

The nature of series [2]: storage stability of crystals.
Series [3] can be described thus: solubility in FaSSIF (excess amount, stirring 24 hours or more, centrifugation, HPLC). As to the method: A suitable FaSSIF is, for example, an aqueous solution containing 28.7 mM potassium dihydrogen phosphate (KH2PO4), 103.3 mM KCl, 3 mM sodium taurocholate, and 0.8 mM L-α-phosphatidylcholine, and adjusted to pH 6.5 using NaOH.
Furthermore, for the purpose of evaluating the solubility of the type I crystal of the free form of Compound I in FaSSIF, an excess amount of the type I crystal of the free form of Compound I was placed in FaSSIF, and after soaking and stirring at 37° C. for 24 hours or more, this was subjected to centrifugation. […] In addition, the solubility of the type II crystal of the free form of Compound I evaluated in the same manner was 2 μg/mL.

Another series in a line: water solubility. The settings on record: 37° C., pH 6 to 7.
Text: as §1

Values after ≈ are worked out from the molar mass of the structure shown.

Turning to `Cc1cc(N2C(=O)NC(=O)C2(C)C)cc(C)c1CCS(=O)(=O)N1CCC2(CC1)N=C(c1ccc(OC(F)(F)F)cc1)NC2=O` [Compound I, 1-(3,5-dimethyl-4-(2-((4-oxo-2-(4-(trifluoromethoxy)phenyl)-1,3,8-triazaspiro[4.5]deca-1-en-8-yl)sulfonyl)ethyl)phenyl)-5,5-dimethylimidazolidine-2,4-dione], the solubility is at least 50 mg/mL in series [1] (acetone/water mixture (95:5 v/v), volume ratio 95:5, read-out: solubility in a mixed solution of acetone and water); at least 80 mg/mL in series [1] (tetrahydrofuran, room temperature, read-out: solubility in THF (tetrahydrofuran)); at least 100 mg/mL in series [1] (tetrahydrofuran/methanol mixture (95:5 v/v), volume ratio 95:5, read-out: solubility in a mixed solution of tetrahydrofuran and methanol). Besides, the pKa values entry in the series “pKa values” is given as “about 8”.

In the case of `Cc1cc(N2C(=O)NC(=O)C2(C)C)cc(C)c1CCS(=O)(=O)N1CCC2(CC1)N=C(c1ccc(OC(F)(F)F)cc1)NC2=O` [type I crystal of the free form of Compound I], the “solubility in THF (tetrahydrofuran)” value in series [1] (room temperature) was at least 80 mg/mL. The storage stability result in series [2] was “excellent storage stability”.

Turning to `Cc1cc(N2C(=O)NC(=O)C2(C)C)cc(C)c1CCS(=O)(=O)N1CCC2(CC1)N=C(c1ccc(OC(F)(F)F)cc1)NC2=O` [type II crystal of the free form of Compound I], the “solubility in FaSSIF” value in series [3] (37° C.) was 0.002 mg/mL (≈ 3.15 µM).

Take `Cc1cc(N2C(=O)NC(=O)C2(C)C)cc(C)c1CCS(=O)(=O)N1CCC2(CC1)N=C(c1ccc(OC(F)(F)F)cc1)NC2=O`: the solubility in series [3] (FaSSIF, 37 °C, pH 6.5, fassif, thermodynamic from solid) was 0.001 mg/mL (≈ 1.57 µM); in the series “water solubility”, below 0.001 mg/mL. This compound returned a pKa in “pKa values” (distilled water) of 8.

For orientation: solubility means the concentration that dissolves in the medium under given conditions. A word on the pKa: it is the negative logarithm of the acid dissociation constant. Higher therefore signals a weaker acid or stronger base.

The record behind these values is patent US20210290541A1, “SOLID DISPERSION OF HYDANTOIN DERIVATIVE” (Chugai Seiyaku Kabushiki Kaisha, priority 2018, published 2021).
